# Experimental data from US20120128728A1 (NOVARTIS PHARMA AG, priority 2005, published 2012).
# Columns and labels:
# in vivo [1] = assay: in vivo; design: species or system dogs; settings: both sexes, dog
# Description: On Study Days 1 and 14, blood samples for toxicokinetic analysis were obtained from designated animals in the vehicle and high-dose groups before exposure and 2, 4, 8, 12, and 24 hr after exposure, and daily during the 14-day recovery period. Main-study animals were euthanized and necropsied on day 15, recovery animals on day 29, during which the right anterior lobe of each animal was obtained for toxicokinetic analysis.
# Aspergillus fumigatus = tested on: Aspergillus fumigatus
# Procedure: This study had three groups, with 10 rabbits each. Group 1 received the immunosuppressive regimen of intravenous cytarabine and methyl prednisolone and a sham saline inoculation. Group 2 received the immunosuppressive regimen and 5×10^7 conidia of A. fumigatus. […] The immunosuppressive agents were administered by intravenous injection. Antibiotics to prevent bacterial infections were administered by intravenous injection or in the drinking water.
# Evaluations performed in this study included mortality and morbidity, daily clinical observations, body weights, clinical pathology (hematology and clinical chemistry), gross necropsy, lung weight, enumeration of visible lung infarctions, fungal colony forming unit (CFU) measurements in BAL, blood, and lung tissue samples, and histopathological evaluation of lung tissue.
# There were 3 study groups with 10 rabbits in each group in this experiment. Group 1 received the immunosuppressive regimen of intravenous cytarabine and methyl prednisolone and a sham saline inoculation. Group 2 received the immunosuppressive regimen and 5×10^7 conidia of A. fumigatus.
# New Zealand White SPF rabbits that were dual catheterized with vascular access ports (VAPs) and weighing between 2.5 to 4.0 kg at study initiation were used. The rabbits were randomly assigned to treatment groups using a computerized body weight stratification procedure.
# In this regard, powder from a blister pack was actuated from the inhaler into a chamber. The small animal ventilator pushed the dispersed powder into an endotracheal tube. The delivery efficiency to the animal was determined by measuring the gravimetric mass of the powder collected on a filter connected to the end of the endotracheal tube. The mass collected on the filter was normalized to the actual blister pack fill weight. The delivery efficiency was used to calculate the estimated dose (mg) for the in vivo experiments.
# in vivo [2] = assay: in vivo; design: species or system rabbits; settings: rabbit
# Procedure: This Example describes results obtained in the plasma and lung tissue only.
# The lot number of the formulation was N020042. The test powder was hand-filled into blister packs and contact sealed at 340° F. for 1.0 second, with an approximate fill weight of approximately 1.5 mg per blister pack.
# (§1) The test inhalation was administered in a single inhalation exposure.
# The study included two groups each comprised of 48 rabbits. […] Four animals were sacrificed at each of the following time points after dosing: 0.16, 0.3, 1, 1.3, 2, 3, 4, 5, 14, 21, 28, and 45 days. Plasma and lung tissue were collected and analyzed for amphotericin B content using LC/MS-MS. Lower limits of quantitation (LLQ) of the assays were 5 ng/mL in plasma and 20 ng/g in lung tissue.
# [3] = tested on: Aspergillus fumigatus, NIH strain 4215; assay: Efficacy of inhaled amphotericin B for prophylaxis in rabbits (Example 13); type: in vivo, New Zealand White SPF rabbits; settings: for survival rate: day 14
# Procedure: The test powder was hand-filled into blister packs and contact sealed at 340° F. for 1.0 second, with an approximate fill weight of approximately 1.5 mg per blister pack.
# as §1
# Aspergillus fumigatus, NIH strain 4215, was obtained from American Type Culture Collection (ATCC). Inoculum of A. fumigatus was prepared on Sabouraud dextrose flasks. Conidia were harvested with a solution of 0.025% Tween 20 in 0.9% sodium chloride, transferred to a conical tube, washed, and counted. The concentration was adjusted with the same solution to achieve 5×10^7 conidia in 300 μL. Animals in challenged groups were inoculated with the same volume. Inoculation was performed on anesthetized rabbits. Rabbits were intubated using an endotracheal tube and the inoculum was then administered intratracheally with a tuberculin syringe attached to a catheter introduced through the endotracheal tube.
# The study included 6 groups each comprised of 10 rabbits. These groups are described in Table 6, below. All groups were immunosuppressed and treated with antibiotics to prevent bacterial infections. The immunosuppression and antibiotic cover regimen is detailed in Table 7, below.
# [4] = Dry powder toxicology study in rats with daily or weekly dosing (Example 15); type: in vivo; settings: dosages up to 30.60 mg/kg/dose amphotericin B alone
# Procedure: The information obtained was used to select dose levels and/or dose regimens for subsequent toxicity studies.
# The following investigations were performed: clinical observations, body weight, hematology, clinical chemistry, organ weight, histopathology, toxicokinetics, and bioanalytical chemistry.
# [5] = Toxicity of two dry powders in rats with daily or weekly dosing (Example 16); type: in vivo
# Procedure: The following investigations were performed: clinical observations, body weight, respiratory measurements, hematology, clinical chemistry, histopathology, toxicokinetics, and bioanalytical chemistry.
# [6] = Toxicity of two dry powders in beagle dogs, once weekly inhalation (Example 17); type: in vivo
# Procedure: The animals were dosed using a close fitting face mask (fitted with a mouth tube) system for 30 min per day according to Table 15, above.
# [7] = Fourteen-day inhalation toxicity/toxicokinetic study in rats; type: in vivo; settings: both sexes, rat, lung tissue, inhaled, recovery period, read-out: lung tissue elimination half-life (t1/2) (converted)
# Procedure: Recovery animals were retained for a 14-day postdose recovery period. On study days 1 and 14, blood samples for toxicokinetic analysis were obtained from designated animals in the vehicle only and high-dose (25 mg/kg) groups at predose, 2 hr postdose, and 4 hr postdose. Toxicokinetic blood samples were also obtained during the 14-day recovery period on recovery Days 7 and 14 for males, and on recovery Day 14 only for females due to their lower body weight.
# All study animals were subjected to a detailed necropsy on completion of the 14-day treatment period (Day 15) or completion of the 14-day recovery period (Day 29). During necropsy, lung tissue samples for toxicokinetic analysis were obtained from each animal.
# fungus = assay: Minimum inhibitory concentration (MIC)
# Procedure: The MIC may be expressed as a particular concentration value or as a range of concentrations. […] As used herein, unless otherwise specified, the MIC value shall be taken to be the particular value when a particular MIC value is determined and shall be taken to be a midrange value when a range of MIC values is determined. MIC determinations may be made according to processes known in the art.
# [8] = rat, in vivo
# Procedure: (§2) The animals were dosed using a snout only exposure technique for about 60 min on 5 occasions at weekly intervals. Recovery animals were retained for an approximate one month recovery period.
# (§3) The following investigations were performed: clinical observations, body weight, food consumption, ophthalmology, hematology, clinical chemistry, urinalysis, histopathology, and toxicokinetics.
# [9] = One month inhalation toxicity study in rats
# Procedure: as §2, §3
# [10] = Group 3: 1.5 mg/kg inhaled 1 day before 5×10^7 conidia
# [11] = Group 3: 1.5 mg/kg inhaled at day −12
# [12] = Group 4: 0.15 mg/kg inhaled at day −1
# [13] = Group 5: 0.5 mg/kg inhaled at day −1
# [14] = Group 6: 1.5 mg/kg inhaled at Day −1
structure (smiles),measurement,setting,value
C[C@@H]1[C@H](O)[C@@H](C)/C=C/C=C/C=C/C=C/C=C/C=C/C=C/[C@H](O[C@@H]2O[C@H](C)[C@@H](O)[C@H](N)[C@@H]2O)C[C@@H]2O[C@](O)(C[C@@H](O)C[C@@H](O)[C@H](O)CC[C@@H](O)C[C@@H](O)CC(=O)O[C@H]1C)C[C@H](O)[C@H]2C(=O)O [amphotericin B],half-life,in vivo [1],18.8 days
same,Kaplan-Meier survival compared with Group 2 (A. fumigatus only),Aspergillus fumigatus; Group 3,significant (p<0.05) increase
same,"animals observed wheezing, gasping, or having rales",Aspergillus fumigatus; Group 3,five
same,animals with more than 20 grossly visible lung infarctions,"Aspergillus fumigatus; Group 3, gross necropsy",20%
same,animals with visible lung infarction,"Aspergillus fumigatus; Group 3, gross necropsy",80%
same,animals with mycotic hyphae present in lung,"Aspergillus fumigatus; Group 3, histopathology",50%
same,average survival time,Aspergillus fumigatus; [10],13 days
same,median day of death or sacrifice,Aspergillus fumigatus; [10],14 days
same,animals having 1 or more tissues positive for fungus,"Aspergillus fumigatus; Group 3, BAL, blood, lung tissue culture, 9 animals",44%
same,effect against A. fumigatus induced mortality,Aspergillus fumigatus; conclusion,prophylactic effect
same,animals surviving beyond nine days,"Aspergillus fumigatus; immunosuppressed, exposed, treated rabbits (FIG. 20)",100%
same,Tmax,in vivo [2]; 0.25 mg/kg,1.33 days
same,group mean lung Cmax,in vivo [2]; 0.25 mg/kg,8.0 µg/g
same,half-life,in vivo [2]; 0.25 mg/kg,12.2 days
same,Tmax,in vivo [2]; 1.5 mg/kg,1 days
same,group mean lung Cmax,in vivo [2]; 1.5 mg/kg,46.6 µg/g
same,half-life,in vivo [2]; 1.5 mg/kg,10.6 days
same,median survival time,[3]; [11],10 days
same,survival rate,[3]; [11],0%
same,median survival time,[3]; [12],9 days
same,survival rate,[3]; [12],10%
same,median survival time,[3]; [13],10.5 days
same,survival rate,[3]; [13],10%
same,median survival time,[3]; [14],10 days
same,survival rate,[3]; [14],10%
same,Logrank pairwise comparison of Groups 3-6 with untreated Group 2,[3]; all doses and treatment days,significant (P<0.001) protection
same,premature demise,[4],3 animals
same,clinical signs,[5]; dosages up to 14.80 mg/kg amphotericin B alone,clinical signs indicative of respiratory distress
same,necropsy findings,"[5]; rats, both powders",no notable necropsy findings
same,"changes in body weight, hematology, clinical chemistry, food consumption, respiratory measurement",[6],no significant changes
same,clinical signs,[6]; all dose groups including vehicle control,salivation
same,necropsy or histopathology findings attributable to administration,[6]; doses up to 8.2 (3.2) mg/kg weekly,no necropsy or histopathology findings
same,half-life,[7]; 1.1 mg/kg dose level,22 days
same,half-life,[7]; 12.4 mg/kg dose level,34 days
same,midrange MIC value,fungus,about 2.25 μg/g
same,"effects on body weight, food consumption, ophthalmology, hematology, clinical chemistry, or organ weights",[8],no adverse effects
same,mortalities during the study,"[9]; 198 M and 198 F rats, one death pretrial",181
same,"animals with pneumonia/pleuritis, collapse or alveolar inflammation","[9]; Groups 3 to 6, Main Study",17/110
same,time to maximum plasma concentration after cessation of dosing,"[9]; rats, toxicokinetics",≤ 4 h
